# Source: ChEMBL document CHEMBL5390267, “Selective Activation of a TRPC6 Ion Channel Over TRPC3 by Metalated Type-B Polycyclic Polyprenylated Acylphloroglucinols” (J Med Chem, 2023)
# Activity calls are given as the source filed them. The calls are words filed in the database; no cut-off is given here.
# Key:
# [1] = Metabolic stability in mouse liver microsomes assessed as half life at 1 uM incubated for 120 mins in presence of NADPH by HPLC-MS/MS analysis; type: ADME, Microsome
# [2] = Photostability of compound assessed as compound decomposition at 5 mg incubated for 1 week under natural sun light-irradiation and air; type: physicochemical; conditions: 168 h, time 1 weeks
# [3] = Kinetic solubility of compound in 1% DMSO/PBS incubated for 5 mins under shaking condition by turbidimetric method; type: physicochemical; conditions: read-out: Kinetic_solubility
# [4] = Metabolic stability in mouse liver microsomes assessed as intrinsic clearance at 1 uM incubated for 120 mins in presence of NADPH by HPLC-MS/MS analysis; type: ADME, Microsome; conditions: read-out: CLH
# [5] = Stability in CD-1 mouse plasma assessed as half life at 1 uM incubated for 15 mins by HPLC-MS/MS analysis; type: ADME, cell-free
# [6] = tested on: PC12; assay: Agonist activity at TRPC6 channel in rat PC12 cells assessed as induction of intracellular calcium level at 10 uM by FLIPR calcium 6 assay; type: cell-based; conditions: time 2.0 hrs
# [7] = molecular target: T1, Short transient receptor potential channel 6 (Homo sapiens) (UniProt Q9Y210); assay: Agonist activity at TRPC6 channel in HEK293 cells assessed as intracellular calcium influx stimulation at 1 to 10 uM by Fura-2 AM staining based calcium influx assay; type: cell-based; conditions: filed as agonist, dose 1-10 µM
# T1 sequence (whole entry): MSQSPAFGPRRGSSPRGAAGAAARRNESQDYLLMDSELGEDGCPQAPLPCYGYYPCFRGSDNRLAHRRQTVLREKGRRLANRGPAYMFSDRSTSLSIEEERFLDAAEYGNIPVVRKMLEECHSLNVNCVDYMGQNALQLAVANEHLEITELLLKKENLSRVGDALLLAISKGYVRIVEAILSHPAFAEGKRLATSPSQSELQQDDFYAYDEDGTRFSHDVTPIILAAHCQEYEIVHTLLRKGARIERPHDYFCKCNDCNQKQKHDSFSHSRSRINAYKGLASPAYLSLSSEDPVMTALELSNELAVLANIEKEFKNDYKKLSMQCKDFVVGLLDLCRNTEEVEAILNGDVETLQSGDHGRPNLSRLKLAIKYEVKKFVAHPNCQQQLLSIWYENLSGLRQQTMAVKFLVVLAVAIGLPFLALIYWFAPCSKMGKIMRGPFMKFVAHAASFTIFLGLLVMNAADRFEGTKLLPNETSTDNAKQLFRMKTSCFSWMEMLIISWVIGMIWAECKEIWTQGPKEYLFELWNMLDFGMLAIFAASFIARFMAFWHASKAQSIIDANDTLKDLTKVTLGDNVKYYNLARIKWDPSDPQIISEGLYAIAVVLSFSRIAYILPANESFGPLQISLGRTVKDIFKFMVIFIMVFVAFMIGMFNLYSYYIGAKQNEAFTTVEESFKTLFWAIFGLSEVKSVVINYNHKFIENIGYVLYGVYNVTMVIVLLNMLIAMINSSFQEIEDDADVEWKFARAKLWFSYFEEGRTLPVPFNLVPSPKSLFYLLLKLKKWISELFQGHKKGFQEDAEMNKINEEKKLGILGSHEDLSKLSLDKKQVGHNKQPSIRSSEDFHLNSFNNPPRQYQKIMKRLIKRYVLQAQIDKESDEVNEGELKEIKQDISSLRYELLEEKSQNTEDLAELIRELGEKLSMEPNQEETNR
# [8] = molecular target: T1, Short transient receptor potential channel 6 (Homo sapiens); assay: Agonist activity at […] TRPC6 channel in HEK293 cells assessed as intracellular calcium influx stimulation at 10 uM by Fura-2 AM staining based calcium influx assay; type: cell-based; conditions: filed as agonist
# [9] = molecular target: T2, Short transient receptor potential channel 3 (Homo sapiens) (UniProt Q13507); assay: Agonist activity at […] TRPC3 channel in HEK293 cells assessed as intracellular calcium influx stimulation at 10 uM by Fura-2 AM staining based calcium influx assay; type: cell-based; conditions: filed as agonist
# T2 sequence (whole entry): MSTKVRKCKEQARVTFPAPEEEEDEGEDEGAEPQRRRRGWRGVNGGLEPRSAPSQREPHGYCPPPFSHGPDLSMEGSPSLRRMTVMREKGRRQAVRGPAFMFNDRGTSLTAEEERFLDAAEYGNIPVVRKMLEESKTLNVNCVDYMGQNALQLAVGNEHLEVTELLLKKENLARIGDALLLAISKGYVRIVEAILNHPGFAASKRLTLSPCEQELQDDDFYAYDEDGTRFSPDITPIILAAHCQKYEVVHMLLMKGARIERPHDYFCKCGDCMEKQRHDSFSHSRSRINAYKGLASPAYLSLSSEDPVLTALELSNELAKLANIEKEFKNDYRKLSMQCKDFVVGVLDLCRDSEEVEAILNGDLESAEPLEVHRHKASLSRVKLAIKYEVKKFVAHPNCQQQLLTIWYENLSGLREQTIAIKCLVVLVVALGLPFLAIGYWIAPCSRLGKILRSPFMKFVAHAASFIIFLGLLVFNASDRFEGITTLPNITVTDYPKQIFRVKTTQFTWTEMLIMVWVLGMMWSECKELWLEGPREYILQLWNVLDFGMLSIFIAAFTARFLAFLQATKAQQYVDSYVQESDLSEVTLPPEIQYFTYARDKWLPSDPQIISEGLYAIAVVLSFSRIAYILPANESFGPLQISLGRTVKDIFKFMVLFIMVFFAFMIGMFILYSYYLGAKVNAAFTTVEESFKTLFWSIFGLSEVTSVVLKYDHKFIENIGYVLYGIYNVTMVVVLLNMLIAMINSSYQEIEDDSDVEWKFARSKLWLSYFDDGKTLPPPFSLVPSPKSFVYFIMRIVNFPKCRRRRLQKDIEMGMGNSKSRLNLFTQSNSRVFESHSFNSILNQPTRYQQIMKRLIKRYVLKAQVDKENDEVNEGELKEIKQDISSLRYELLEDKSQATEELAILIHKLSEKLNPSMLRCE
smiles,measurement,setting,value
C=CC[C@@]12C[C@H](CC=C(C)C)C(C)(C)[C@@](CC=C)(C(=O)C(C(C)=O)=C1[O-])C2=O.[Na+],half-life at 1 µM,[1],31.5 min
same,Stability,[2],Stable
same,solubility kinetic at 5 min,[3],> 200 µM
same,microsomal CLint at 1 µM,[4],44.7 µL/min/mg
same,half-life at 1 µM,[5],154 min
C=CC[C@@]12C[C@H](CC=C(C)C)C(C)(C)[C@@](CC=C)(C(=O)C(C(C)=O)=C1O)C2=O [listing 1 of 2 here],solubility kinetic at 5 min,[3],49.1 µM
CC(C)=CC[C@H]1C[C@@]2(CC=C(C)C)C(=O)[C@](CC=C(C)C)(C(=O)C(C(=O)c3ccccc3)=C2O)C1(C)C,Activity,[6],inactive
CC(=O)C1=C(O)[C@@]2(CC=C(C)C)C[C@H](CC=C(C)C)C(C)(C)[C@@](CC=C(C)C)(C1=O)C2=O,Activity,[6],inactive
C=CC[C@@]12C[C@H](CC=C(C)C)C(C)(C)[C@@](CC=C)(C(=O)C(C(C)=O)=C1O)C2=O [listing 2 of 2 here],Activity,[7],Active
same,Activity,[8],Active
same,Activity,[6]; filed as agonist,Active
CC(C)=CCC[C@]1(C)[C@@H](CC=C(C)C)C[C@]2(CC=C(C)C)C(=O)C(CC=C(C)C)=C(O)[C@@]1(C(=O)C(C)C)C2=O,Activity,[8],Active
same,Activity,[6]; filed as agonist,Active
CCCCCCCC/C=C\CCCCCCCC(=O)OC[C@H](CO)OC(C)=O,Activity,[9],Active
same,Activity,[8],Active
